Columns and labels:
Type in all cases: cell-based, human
[1] = test system: SC beta cell differentiation; assay: Other modifications to the differentiation protocol, differentiation markers; details: for PDX1/NKX61 co expression: treatment during S4
From the text: (§1) Other Modifications with Benefits (See e.g., FIG. 90-FIG. 95). • Y and Blebbistatin treatment during stage 4 of differentiation • Reducing volume of media • Wnt modification—IWP2 treatment during s1d2-d4 • bFGF treatment during stage 1 • Betacellulin removal during S5 • Other compound treatments during Stage 6

[2] = test system: stem cells in SC-β cell protocol; assay: Cytoskeletal modulating compounds added for first 24 hours of stages of the SC-β cell protocol, gene expression; details: added during stage 1, read at S2d1
Protocol: Small molecules that influence the state of the cytoskeleton were added for first 24 hours of various stages of the SC-β cell protocol.

INS-mCherry+ cells = assay: mCherry/INS reporter cell line, β cell health
From the text: Stage 6 INS+/−mcherry SC-islets can be single cell dispersed, sorted for INS+ SC-β cells, and treated with a SERCA pump inhibitor (thapsigargin) to reduce insulin secretion for high throughput drug screening.

WS4^corr stage 6 cells = assay: ER stress study: thapsigargin treatment, static GSIS, real-time PCR and western blot
Protocol: (§2) For static GSIS, approximately 30 stage 6 clusters were placed in transwells (Corning), equilibrated for 1 hr in 2 mM glucose KRB (TABLE 6), and challenged with sequential 1-hr 2 and 20 mM KRB treatments. For dynamic GSIS, clusters were loaded into a cell chamber, perfused with buffer at 100 μL/min, and equilibrated in 2 mM glucose KRB for 90 min. The samples were then challenged for 12 min at 2 mM, 24 min at 20 mM, and 12 min at 2 mM glucose KRB, collecting effluent every 2-4 min. Human insulin was quantified with ELISA and data normalized to cell counts from Vi-Cell XR or DNA quantification using Quant-iT Picogreen dsDNA assay kit (Invitrogen).
(§3) Detection of phosphorylated and total eIF2α as performed by lysing cells in 1% Triton buffer (20 mM HEPES, pH 7.5, 150 mM NaCl, 1% Triton X-100, 10% glycerol (Sigma), 1 mM EDTA, 10 mM tetrasodium pyrophosphate (Sigma), 17.5 mM β-glycerophosphate (Sigma), PhosSTOP (Roche), and complete protease inhibitor cocktail (Roche). Detection of all other proteins was done by lysing cells in M-PER Mammalian Protein Extraction Reagent (Thermo Scientific) supplemented with cOmplete protease inhibitor cocktail. After 30 min incubation on ice, samples were centrifuged, supernatants collected, and protein-equivalent samples were loaded onto 4-20% Mini-PROTEAN TGX Precast Protein Gels (Bio-Rad) and transferred to an Immobilon-P PVDF Membrane (Millipore). The membrane was treated with 5% skimmed milk for 1 hr at RT and probed with the primary antibodies. The antibodies were detected using HRP-linked secondary antibodies. The density of each band was quantified using Image Lab software (Bio-Rad).
(§4) RNA was extracted with the RNeasy Mini Kit (Qiagen) with DNase treatment (Qiagen), cDNA was synthesized with the High Capacity cDNA Reverse Transcriptase Kit (Applied Biosystems using a thermocycler (Applied Biosystems), real-time PCR reactions were generated with PowerUp SYBR Green Master Mix (Applied Biosystems) using a StepOnePlus (Applied Biosystems), and data analyzed using ΔΔCt methodology. TBP and GUSB were used as normalization genes. Primer sequences used can be found in TABLE 8.
(§5) Cells were incubated for 48 hr with 10 μM Thapsigargin (EMD Chemicals), 30 mM glucose, or a cytokine mix including 500 ng/mL IFNγ (R&D Systems), 500 ng/mL TNFα (R&D Systems), and 100 ng/mL […] (R&D Systems).

WS4^unedit stage 6 cells = assay: as above
Protocol: as §2, §3, §4, §5

SC-β cells = assay: Refining stage 6 ESFM: components on top of base media, GSIS stimulation index; details: in ESFM, 20 mM; by increasing insulin secretion at low glucose
Protocol: Base Media • MCDB131 • 10% BSA • Glutamax • P/S • Glucose • Zn 10 μM
Treatment on Top of Base Media • 1-Trace A 1:1000 • 2-Trace B 1:1000 • 3-Trace C 1:1000 • 4-Heparin 10 μg/mL • 5-NEAA 1:100 • 6-Vitamin C 250 μM • 7-NaHCO320 mM • 8-Defined Lipid Mixture 1:1000 • 9-Defined Lipid Mixture 1:1000 • 10-Base • 11-S6 w/water dilution 1:100 • 12-S6 no water dilution
All samples had same total dilution of 1:100 with water to maintain same osmolarity amongst samples.

SC-beta cells = assay: Compound treatments during Stage 6 (s6d1-7), insulin secretion; details: treatment during s6d1-7
From the text: as §1

Stage 6 SC-Beta cells = assay: Compounds to improve SC-beta cells: 7 day culture, qPCR of 10 genes; details: 1 μg/mL, 6 days, qPCR vs Control 1
Protocol: Cultured 14 wells of 6-well plates containing Stage 6 SC-Beta cells differentiated in suspension by Punn. Two wells served as controls.
Each well was cultured in one of the following for 7 days*: • […] IFN Gamma • […] TNF Alpha • […] IL-1 Beta • Mixture of the above cytokines • 10% FBS • 10, 1, and 0.1 μM A83-01 • 10, 1, and 0.1 μM Alk5i Ill • 1 μg/mL Lefty A (*cultured for 6 days)
Ran qPCR and compared everything to Control 1 (had smallest Ct SD).

[3] = 10 μM Thapsigargin, 48 hr, static GSIS, WS4^corr stage 6 cells

“bFGF: growth factor added during stage 1” was tested, and the differentiation ([1]; treatment during Stage 1) was “improves differentiation”.

In the case of `C[C@@H](N)[C@H]1CC[C@H](C(=O)Nc2ccncc2)CC1` [Y], the PDX1/NKX61 co expression [1] is reported as “Improves”.

With `Cc1ccc2nc(NC(=O)CSc3nc4c(c(=O)n3-c3ccccc3)SCC4)sc2c1` [IWP2] the “PDX1 yield at S3” value ([1]; during Sd2-d4) was “promotes”.

In the case of `CCCCCCCCCCCCC/C=C/[C@@H](O)[C@@H](N)COP(=O)(O)O` [s1p], the “expression of the mesoderm marker Brachyury T” value [2] is reported as “greatly increases”.

`Cc1ccc2c(c1)C(=O)C1(O)CCN(c3ccccc3)C1=N2` (stereo not drawn) [Blebbistatin] was tested, and the PDX1/NKX61 co expression [1] was “Improves”.

With `C/C=C(/C)C(=O)O[C@H]1C(C)=C2[C@H]([C@@H]1OC(=O)CCCCCCC)[C@@](C)(OC(C)=O)C[C@H](OC(=O)CCC)[C@@]1(O)[C@H]2OC(=O)[C@@]1(C)O` [thapsigargin] the De-differentiation signatures (INS-mCherry+ cells) was “De-differentiation signatures occur”, the “mCherry fluorescence (insulin expression)” value (INS-mCherry+ cells) was “reduces mCherry fluorescence” and the “decrease of insulin secretion” value (WS4^corr stage 6 cells; [3]) was 3.9±0.7 ×. The glucose-responsiveness (WS4^corr stage 6 cells; [3]) was “eliminating glucose-responsiveness”, the known stress markers (WS4^corr stage 6 cells; real-time PCR and western blot, bulk stage 6 population, WS4^corr cells) was “increasing known stress markers” and the insulin secretion (WS4^unedit stage 6 cells; 10 μM Thapsigargin, 48 hr, static GSIS, WS4^unedit stage 6 cells) was “not affected”. For the same molecule, the known stress markers (WS4^unedit stage 6 cells; real-time PCR and western blot, bulk stage 6 population, WS4^unedit cells) was “increasing known stress markers”.

In the case of `O=C([O-])O.[Na+]` [NAHCO3], the “stimulation index (GSIS)” value (SC-β cells) is reported as “reduces stimulation index”.

With `C=C1[C@@H](C)[C@H]2[C@H](Cc3ccccc3)NC(=O)[C@]23[C@H](OC(C)=O)/C=C/[C@@](C)(O)C(=O)[C@@H](C)C/C=C/[C@H]3[C@@H]1O` [CytoD] the insulin secretion (SC-beta cells) was “increases”.

`OC[C@H]1OC(O)[C@H](O)[C@@H](O)[C@@H]1O` (stereo partly drawn) [High Glucoses] was tested, and the insulin secretion (SC-beta cells) was “increases”.

B1: BC: Betacellulin, stage 5 factor (protein, UniProt P35070 32-111, looked up)
Betacellulin: DGNSTRSPETNGLLCGDPEENCAATTTQSKRKGHFSRCPKQYKHYCIKGRCRFVVAEQTPSCVCDEGYIGARCERVDLFY
modifications: Betacellulin
notes: Betacellulin, stage 5 factor
With B1 the “requirement for Beta cell induction” value ([1]; removal during S5) was “not required”.

B2: Lefty A: factor added to stage 6 culture at 1 μg/mL (protein, UniProt O00292 77-366, looked up)
Left-right determination …: RFSQSFREVAGRFLASEASTHLLVFGMEQRLPPNSELVQAVLRLFQEPVPKAALHRHGRLSPRSAQARVTVEWLRVRDDGSNRTSLIDSRLVSVHESGWKAFDVTEAVNFWQQLSRPRQPLLLQVSVQREHLGPLASGAHKLVRFASQGAPAGLGEPQLELHTLDLRDYGAQGDCDPEAPMTEGTRCCRQEMYIDLQGMKWAKNWVLEPPGFLAYECVGTCQQPPEALAFNWPFLGPRQCIASETASLPMIVSIKEGGRTRPQVVSLPNMRVQKCSCASDGALVPRRLQP
B2 was tested, and the NKX6-1 expression (Stage 6 SC-Beta cells) was “slightly decreased” and the “genes with increased expression (IAPP, SIX2, CHGA, SIX3, G6PC2, MAF B)” value (Stage 6 SC-Beta cells) was 6/10.

From US20230392124A1, “METHODS AND COMPOSITIONS FOR IMPROVING SC-BETA CELLS OR ENHANCING THEIR UTILITY” (Washington University, priority 2020, published 2023)
